The results in this text go back to patent publication EP1724268A1, “COMPOUND HAVING TGF-BETA INHIBITORY ACTIVITY AND PHARMACEUTICAL COMPOSITION CONTAINING SAME” (KIRIN BEER KABUSHIKI KAISHA, priority 2004, dated 2005).

In this assay the test system is TGFβ signal. The assay is described as follows: TGFβ signal inhibitory activity, (SBE)4-Luc reporter in A549 cells (Test Examples 1A and 1B). The assay is classed as cell-based, human. As to conditions: Homo sapiens, A549, TGFβ-1 2 ng/ml, 4 hr, Table 1A, read-out: TGFβ inhibition rate, %; for inhibition at 3 µM: test compound 3 µM; for inhibition at 10 µM: test compound 10 µM; for inhibition at 1 µM: test compound 1 µM. On the procedure: Test Example 1A: TGFβ signal inhibitory activity (in vitro test) The compounds according to the present invention was evaluated for TGFβ signal inhibitory activity according to the method described in J. Boil .Chem., 273, 21145-21152 (1998). Specifically, a plasmid having four tandem binding sequences of Smad3, a TGF-beta signal transducer, to the upstream of a luciferases gene were used as a reporter plasmid ((SBE)4-Luc) to detect TGF-beta signal, This reporter gene was introduced into human pulmonary carcinoma epithelial cells (A549) (available from ATCC) to establish a stable cell line. A test compound and TGFβ-1 (2 ng/ ml) were added to the cells, and the mixture was cultured for 4 hr. In this case, the compounds according to the present invention synthesized in the Examples were used as the test compound. After the culture, the luciferase activity of the cells were measured by chemiluminescence (Steady Glo (trademark) luciferase assay system, available from Promega). Likewise, the luciferase activity was measured as a control against the culture of cells with the addition of TGFβ only and the culture of cells without the addition of both TGFβ and the test compound.
The TGFβ inhibition (%) was calculated by the following equation, based on the measurement results. TGFβ inhibition(%) = (A-B)/(A-C) × 100 [formula] wherein • A: luciferase activity with the addition of TGFβ1 and without the addition of test compound (relative luciferase unit), • B: luciferase activity with the addition of both TGFβ1 and test compound (relative luciferase unit), and • C: luciferase activity without the addition of both TGFβ1 and test compound (relative luciferase unit).
The test was carried out for each of test compound at the concentrations of 3 µM and 10 µM. For certain test compounds, the test was further carried out for test compound at the concentration of 1 µM.
For the compounds of Reference Examples, the TGFβ signal inhibitory activity was evaluated in the same manner as in Test Example 1A.

The term inhibition denotes how much of the control response was suppressed.

`c1ccc(-c2nc3ncccc3cc2Oc2ccnc3ccccc23)cc1` [Compound 52, 2-Phenyl-3-(quinolin-4-yloxy)-[1,8]naphthyridine]: the inhibition at 3 µM stood at 96% and the inhibition at 10 µM is 100%.
`Fc1ccc2nccc(Oc3cc4cccnc4nc3-c3ccccc3)c2c1` [Compound 53, 3-(6-Fluoro-quinolin-4-yloxy)-2-phenyl-[1,8]naphthyridine]: the inhibition at 1 µM was 43% and the inhibition at 3 µM is 83%.
For `FC(F)(F)c1ccc2nccc(Oc3cc4cccnc4nc3-c3ccccc3)c2c1` [Compound 54, 2-Phenyl-3-(6-trifluoromethyl-quinolin-4-yloxy)-[1,8]naphthyridine], the inhibition at 3 µM came out at 76% and the inhibition at 10 µM was found to be 99%.
In the case of `COc1ccc2nccc(Oc3cc4cccnc4nc3-c3ccccc3)c2c1` [Compound 55, 3-(6-Methoxy-quinolin-4-yloxy)-2-phenyl-[1,8]naphthyridine], the inhibition at 3 µM was determined as 94% and the inhibition at 10 µM worked out at 100%.
Take `COc1ccc2c(Oc3cc4cccnc4nc3-c3ccccc3)ccnc2c1` [Compound 56, 3-(7-Methoxy-quinolin-4-yloxy)-2-phenyl-[1,8]naphthyridine]: the inhibition at 3 µM was 99% and the inhibition at 10 µM came out at 100%.
Consider `Clc1ccc2nccc(Oc3cc4cccnc4nc3-c3ccccc3)c2c1Cl` [Compound 57, 3-(5,6-Dichloro-quinolin-4-yloxy)-2-phenyl-[1,8]naphthyridine], for which the inhibition at 3 µM worked out at 75% and the inhibition at 10 µM is 100%.
For `Clc1cc2nccc(Oc3cc4cccnc4nc3-c3ccccc3)c2cc1Cl` [Compound 58, 3-(6,7-Dichloro-quinolin-4-yloxy).2-phenyl-[1,8]naphthyridine], in that order: 83% and 100%.
Regarding `COc1cc2nccc(Oc3cc4cccnc4nc3-c3ccccc3)c2cc1F` [Compound 59, 3-(6-Fluoro-7-methoxy-quinolin-4-yloxy)-2-phenyl-[1,8]naphthyridine], the inhibition at 1 µM was determined as 93%.
For the compound `COc1cc2c(Oc3cc4cccnc4nc3-c3ccccc3)ccnc2cc1F` [Compound 60, 3-(7-Fluoro-6-methoxy-quinolin-4-yloxy)-2-phenyl-[1,8]naphthyridine], the inhibition at 3 µM came to 76% and the inhibition at 10 µM is 100%.
Turning to `COc1cc2c(Oc3cc4cccnc4nc3-c3ccccc3)ccnc2cc1Cl` [Compound 61, 3-(7-Chloro-6-methoxy-quinolin-4-yloxy)-2-phenyl-[1,8]naphthyrridine], the inhibition at 3 µM turned out to be 98% and the inhibition at 10 µM is 100%.
In the case of `COc1cc2c(Oc3cc4cccnc4nc3-c3ccccc3)ccnc2cc1C` [Compound 62, 3-(6-Methoxy-7-methyl-quinolin-4-yloxy)-2-phenyl-[1,8]naphthyridine], the inhibition at 3 µM was determined as 99% and the inhibition at 10 µM was determined as 100%.
For the compound `COC(=O)c1cc2c(Oc3cc4cccnc4nc3-c3ccccc3)ccnc2cc1OC` [Compound 63, Methyl 7-methoxy-4-(2-phenyl-[1,8]naphthyridin-3-yloxy)-quinoline-6-carboxylate], the inhibition at 3 µM amounted to 99% and the inhibition at 10 µM was found to be 100%.
As to `COc1cc2nccc(Oc3cc4cccnc4nc3-c3ccccc3)c2cc1C(=O)NCc1ccccc1` [Compound 65, 7-Methoxy-4-(2-phenyl-[1,8]naphthyridin-3-yloxy)-quinoline-6-carboxylate benzylamide], the inhibition at 3 µM came out at 97% and the inhibition at 10 µM was 100%.
On to `COc1cc2nccc(Oc3cc4cccnc4nc3-c3ccccc3)c2cc1C(N)=O` [Compound 66, 7-Methoxy-4-(2-phenyl-[1,8]naphthyridin-3-yloxy)-quinoline-6-carboxylic acid amide], for which the inhibition at 1 µM was 97% and the inhibition at 3 µM came out at 100%.
With `Clc1ccc2ncnc(Oc3cc4cccnc4nc3-c3ccccc3)c2c1` [Compound 68, 6-Chloro-4-(2-phenyl-[1,8]naphthyridin-3-yloxy)-quinazoline], the inhibition at 3 µM is 43% and the inhibition at 10 µM was found to be 91%.
On to `Brc1ccc2ncnc(Oc3cc4cccnc4nc3-c3ccccc3)c2c1` [Compound 69, 6-Bromo-4-(2-phenyl-[1,8]naphthyridin-3-yloxy)-quinazoline], for which the inhibition at 3 µM was determined as 52% and the inhibition at 10 µM came out at 94%.
The corresponding values for `COc1ccc2ncnc(Oc3cc4cccnc4nc3-c3ccccc3)c2c1` [Compound 70, 6-Methoxy-4-(2-phenyl-[1,8]naphthyridin-3-yloxy)-quinazoline] are 61% and 95%.
The corresponding values for `c1ccc(-c2nc3ncccc3cc2Oc2ccnc3ccsc23)cc1` [Compound 71, 2-Phenyl-3-(thieno[3,2-b]pyridin-7-yloxy)-[1,8]naphthyridine] are 93% and 100%.
Take `c1ccc(-c2cc3nccc(Oc4cc5cccnc5nc4-c4ccccc4)c3s2)cc1` [Compound 72, 2-Phenyl-3-(2-phenyl-thieno[3,2-b]pyridin-7-yloxy)-[1,8]naphthyridine]: the inhibition at 1 µM amounted to 81% and the inhibition at 3 µM was 99%.
`c1ccc(-c2nc3ncccc3cc2Oc2ccnc3cccnc23)cc1` [Compound 73, 4-(2-Phenyl-[1,8]naphthyridin-3-yloxy)-[1,5]naphthyridine]: the inhibition at 3 µM was determined as 26% and the inhibition at 10 µM stood at 80%.
The corresponding values for `c1ccc(-c2nc3ncccc3cc2Oc2ccnc3ccncc23)cc1` [Compound 74, 4-(2-Phenyl-[1,8]naphthyridin-3-yloxy)-[1,6]naphthyridine] are 53% and 90%.
`c1ccc(-c2nc3ncccc3cc2Oc2ncnc3ccsc23)cc1` [Compound 75, 2-Phenyl-3-(thieno[3,2-d]pyrimidin-4-yloxy)-[1,8]naphthyridine]: the inhibition at 3 µM was 84% and the inhibition at 10 µM was 98%.
The corresponding values for `c1ccc(-c2nc3ncccc3cc2Oc2ncnc3sccc23)cc1` [Compound 76, 2-Phenyl-3-(thieno[2,3-d]pyrimidin-4-yloxy)-[1,8]naphthyridine] are 44% and 83%.
On to `Cc1csc2ncnc(Oc3cc4cccnc4nc3-c3ccccc3)c12` [Compound 77, 3-(5-Methyl-thieno[2,3-d]pyrimidin-4-yloxy)-2-phenyl-[1,8]naphthyridine], for which the inhibition at 3 µM turned out to be 93% and the inhibition at 10 µM is 99%.
For `Cc1sc2ncnc(Oc3cc4cccnc4nc3-c3ccccc3)c2c1C` [Compound 78, 3-(5,6-Dimethyl-thieno[2,3-d]pyrimidin-4-yloxy)-2-phenyl-[1,8] naphthyridine], in that order: 75% and 99%.
For `COc1cccc(-c2nc3ncccc3cc2Oc2ccnc3cc(OC)c(OC)cc23)c1` [Compound 81, 3-(6,7-Dimethoxy-quinolin-4-yloxy)-2-(3-methoxy-phenyl)-[1,8] naphthyridine], the inhibition at 3 µM came out at 97% and the inhibition at 10 µM worked out at 100%.
Regarding `Brc1ccc(-c2nc3ncccc3cc2Oc2ccnc3ccccc23)cc1` [Compound 82, 2-(4-Bromo-phenyl)-3-(quinolin-4-yloxy)-[1,8]naphthyridine], the inhibition at 3 µM was 25% and the inhibition at 10 µM turned out to be 67%.
